The values below come from patent publication US12134788B2, “Engineered prephenate dehydrogenases and arogenate dehydrogenases and methods of using the same” (Wisconsin Alumni Research Foundation, priority 2017, dated 2024).

For assay [1], the system named is Peanut PDH/ADH (AipaensisVYE8T), Arachis ipaensis, wild type. Nature of the assay: ADH and PDH assay: steady-state kinetics and Tyr inhibition, peanut PDH/ADH. It is filed as biochemical. The protocol: (§1) Kinetic parameters of purified recombinant proteins were determined from assays conducted at varying arogenate (19.5 μM-5 mM) and prephenate concentration (23.4 μM-6 mM). Standard assay conditions were 25 mM HEPES pH 7.6, 50 mM KCl and 10% (v/v) ethylene glycol, and 0.5 mM NADP^+ with varied substrate, concentrations. Reactions were initiated by addition of enzyme and incubated at 37° C. monitored every 10-15 seconds at […] using a microplate reader (Tecan Genios). Kinetic parameters were determined by fitting initial velocity data to the Michaelis-Menten equation using the Origin software (OriginLab).
(§2) Arogenate was prepared by enzymatic conversion of prephenate (Sigma-Aldrich) as previously reported^56. For Tyr inhibition assays, Tyr was dissolved in a slightly basic solution (0.025 N NaOH) due to solubility issues, thus the concentration of lysis buffer was increased to 500 mM HEPES final concentration to buffer against the changes by addition of Tyr in the reaction. Reactions containing varying amounts of Tyr (10 μM-8 mM) with 0.5 mM NADP^+ and either 1 mM arogenate or 0.8 mM prephenate were monitored as above.

Assay [2] relates to Methanosaeta harundinacea MhTyrAp variant Q227E. Nature of the assay: Kinetic analysis of MhTyrAp Q227E mutant. It is filed as biochemical. Here is the method:
FIGS. 14A-14B show a kinetic analysis of MhTyrAp wild-type and Q227E mutant enzymes. Kinetic analysis was performed with MhTyrAp wild-type (filled circle) and Q227E mutant (open square) enzymes using various concentrations of prephenate (FIG. 14A) and arogenate (FIG. 14B). Initial velocity values at each substrate concentration were fit to the Michaelis-Menten equation using Origin software. Kinetic analyses were conducted for MhTyrA wild-type using 3.41 μg of purified recombinant enzyme, and 4.56 μg and 2.28 μg of purified recombinant Q227E using prephenate and arogenate, respectively.
ADH and PDH assays were performed using purified recombinant enzymes for SsTyrA and MhTyrA Wt and Q227E mutant, while the E. coli cell lysate was used for OiTyrA as expression and purification of this enzyme was unsuccessful. Reactions contained 0.8 mM substrate (arogenate or prephenate) and 0.8 mM cofactor (NADP+ or NAD+) together with reaction buffer (25 mM HEPES pH 7.6, 50 mM KCl, 10% (v/v) ethylene glycol). For OiTyrA assays containing cell lysates, reactions were incubated for 45 minutes and analyzed using HPLC as previously reported (Schenck et al., 2015). For pure enzymes, reactions were monitored every 10-15 seconds for reduced cofactor at A340 nm using a microplate reader (Tecan Genios). Kinetic parameters of purified recombinant enzymes were determined from assays containing varying concentrations of arogenate (39.1 μM-5 mM) or prephenate (39.1 μM-5 mM) substrate and monitored 10-15 seconds for reduced cofactor at A340 nm using a microplate reader (Tecan Genios). Kinetic parameters were determined by fitting initial velocity data to the Michaelis-Menten equation using Origin software (OriginLab) from technical replicate assays (n=3). Arogenate substrate was prepared by enzymatic conversion of prephenate (Sigma-Aldrich). All enzyme assays were conducted at a reaction time and protein concentration that were in the linear range and proportional to reaction velocity.

In assay [3] the target is T1, Glycine max GmncADH variant D218N (Glycine max, UniProt I1M7P5, D218N).
T1 construct: D218N by site-directed mutagenesis
T1 sequence (I1M7P5 1-266 D218N): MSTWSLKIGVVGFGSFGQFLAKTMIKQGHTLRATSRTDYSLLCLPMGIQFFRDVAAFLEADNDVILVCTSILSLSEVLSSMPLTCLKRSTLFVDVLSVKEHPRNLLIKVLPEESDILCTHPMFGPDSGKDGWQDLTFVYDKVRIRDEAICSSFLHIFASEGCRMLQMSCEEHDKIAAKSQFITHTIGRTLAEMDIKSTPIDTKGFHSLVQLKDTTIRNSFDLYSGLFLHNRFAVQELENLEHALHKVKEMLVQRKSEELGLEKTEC
The assay is described as follows: ADH and PDH assay: steady-state kinetics and Tyr inhibition, GmncADH D218N. The class given is biochemical, Glycine max (soybean). To be noted: versus wild-type GmncADH. The protocol:
as §1, §2

The target of assay [4] is T2, MtncADH (Mt5g083530), Medicago truncatula noncanonical arogenate dehydrogenase, wild type (Medicago truncatula, UniProt A0A217FAR3).
T2 construct: wild type
T2 sequence (A0A217FAR3 1-266): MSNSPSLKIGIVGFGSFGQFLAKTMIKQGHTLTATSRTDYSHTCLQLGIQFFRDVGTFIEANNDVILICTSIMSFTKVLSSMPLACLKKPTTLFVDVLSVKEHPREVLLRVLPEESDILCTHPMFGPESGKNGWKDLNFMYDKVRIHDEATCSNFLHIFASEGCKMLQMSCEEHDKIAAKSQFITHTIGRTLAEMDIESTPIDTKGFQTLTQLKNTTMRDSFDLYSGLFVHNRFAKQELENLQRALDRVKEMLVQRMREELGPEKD
The assay is described as follows: ADH and PDH assay: steady-state kinetics and Tyr inhibition, MtncADH wild type. To be noted: kcat/Km. It is filed as biochemical. The protocol: as §1, §2

For assay [5], the target named is T3, Medicago truncatula MtPDH variant C220D, SEQ ID NO: 1 (Medicago truncatula, UniProt A0A0A0R205, C220D).
T3 sequence (A0A0A0R205 1-268 C220D): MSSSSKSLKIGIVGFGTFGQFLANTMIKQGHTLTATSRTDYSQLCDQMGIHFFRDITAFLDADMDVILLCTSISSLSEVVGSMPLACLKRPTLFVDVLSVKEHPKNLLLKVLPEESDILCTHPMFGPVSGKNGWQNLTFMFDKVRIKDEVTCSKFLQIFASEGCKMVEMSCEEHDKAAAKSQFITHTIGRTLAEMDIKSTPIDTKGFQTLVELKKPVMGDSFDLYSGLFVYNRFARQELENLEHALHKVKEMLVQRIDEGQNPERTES
Nature of the assay: ADH and PDH assay: steady-state kinetics and Tyr inhibition, MtPDH C220D. The class given is biochemical. To be noted: compared to wild-type MtPDH. Here is the method: as §1, §2

The target of assay [6] is T4, Glycine max GmPDH1 variant N222D, SEQ ID NO: 2 (Glycine max, UniProt I1MYY4, N222D).
T4 sequence (I1MYY4 1-271 N222D): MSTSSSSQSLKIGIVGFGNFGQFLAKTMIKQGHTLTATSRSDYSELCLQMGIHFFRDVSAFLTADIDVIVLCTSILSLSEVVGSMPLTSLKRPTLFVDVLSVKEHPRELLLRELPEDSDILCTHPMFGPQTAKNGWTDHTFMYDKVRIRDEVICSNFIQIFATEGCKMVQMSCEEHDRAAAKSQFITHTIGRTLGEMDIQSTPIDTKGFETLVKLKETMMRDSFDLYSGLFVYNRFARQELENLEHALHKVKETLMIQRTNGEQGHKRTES
Nature of the assay: ADH and PDH assay: steady-state kinetics and Tyr inhibition, GmPDH1 N222D. The class given is biochemical, Glycine max (soybean). To be noted: 0.5 mM NADP^+, pH 7.6, 37° C. The protocol: as §1, §2

The target of assay [7] is T5, GmncADH (Gm14g05990), soybean (Glycine max) noncanonical arogenate dehydrogenase, wild type (Glycine max, UniProt I1M7P5).
T5 construct: wild type
T5 sequence (I1M7P5 1-266): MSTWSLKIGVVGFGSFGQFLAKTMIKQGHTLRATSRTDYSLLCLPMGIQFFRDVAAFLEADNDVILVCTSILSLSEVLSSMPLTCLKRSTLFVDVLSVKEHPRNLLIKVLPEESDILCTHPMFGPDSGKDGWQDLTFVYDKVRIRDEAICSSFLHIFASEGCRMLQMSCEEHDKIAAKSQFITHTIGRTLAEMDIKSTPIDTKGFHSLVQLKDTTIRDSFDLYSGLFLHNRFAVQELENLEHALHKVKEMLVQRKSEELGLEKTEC
Nature of the assay: ADH and PDH assay: steady-state kinetics and Tyr inhibition, GmncADH wild type. The class given is biochemical. To be noted: 0.5 mM NADP^+, pH 7.6, 37° C. The protocol:
as §1, §2

The conditions of assay [8]: arogenate versus prephenate, from references 29, 34; cited from earlier work.

Where “and” joins values, the source holds several entries; their conditions need not be identical. Identical values can stand only once.

As to `N[C@@H](CC1(C(=O)O)C=CC(O)C=C1)C(=O)O` (stereo partly drawn) [arogenate], the Km (in general, the concentration of substrate that gives half-maximal velocity) in assay [1] (0.5 mM NADP^+, pH 7.6, 37° C.) was 0.28 ± 0.03 mM; in assay [2] (NADP+ cofactor, pH 7.6, read-out: Km), 3.3 mM and 3.29 mM. Besides, the kcat (usually the maximal rate divided by the concentration of active sites) came to 3.2 ± 0.1 s⁻¹ in assay [1] (0.5 mM NADP^+, pH 7.6, 37° C.); 0.704 ± 0.06 s⁻¹ in assay [2] (NADP+ cofactor, pH 7.6); 27.8 s⁻¹ in assay [6]; 27.7 s⁻¹ in assay [7]. Besides, the kcat/Km – broadly, the second-order rate constant that governs catalysis at low substrate concentration – in assay [1] (0.5 mM NADP^+, pH 7.6, 37° C.) is 11,430 M^−1 s^−1; in assay [1] (FIG. 7A, with NADP^+) it was 11.6 mM⁻¹ s⁻¹; in assay [2] (NADP+ cofactor, pH 7.6), 200 M⁻¹ s⁻¹ and 213 ± 10 M⁻¹ s⁻¹. For the same molecule, in assay [2], the “fold higher Km than that of wild-type for prephenate” value is reported as 10 fold. Besides, the “fold higher catalytic efficiency with arogenate than with prephenate” value in assay [2] is recorded as “roughly 2 fold”. Further, the “fold reduction of kcat/Km for ADH” value in assay [3] is recorded as approximately 6 fold. In addition, in assay [4], the “fold more efficient (preference) with arogenate over prephenate” value was ~6,200 fold and 6,190 fold. Also, the “fold lower Km” value in assay [5] worked out at 3 fold.

B1: AaPDH: prephenate dehydrogenase from Aquifex aeolicus, PDB 3GGG (protein)
chain: MQNVLIVGVGFMGGSFAKSLRRSGFKGKIYGYDINPESISKAVDLGIIDEGTTSIAKVEDFSPDFVMLSSPVRTFREIAKKLSYILSEDATVTDQGSVKGKLVYDLENILGKRFVGGHPIAGTEKSGVEYSLDNLYEGKKVILTPTKKTDKKRLKLVKRVWEDVGGVVEYMSPELHDYVFGVVSHLPHAVAFALVDTLIHMSTPEVDLFKYPGGGFKDFTRIAKSDPIMWRDIFLENKENVMKAIEGFEKSLNHLKELIVREAEEELVEYLKEVKIKRMEI
modifications: A. aeolicus; misc_feature (1)..(281): A.aeolicus AaPDH
notes: prephenate dehydrogenase from Aquifex aeolicus, PDB 3GGG
Consider B1, for which the “substrate specificity (in words)” value in assay [8] is listed as “prefers prephenate”.
